Results reported in patent US8883745B2, “C—glycolipids with enhanced Th-1 profile” (New York University, priority 2006, dated 2014).

Tests used:
IFN-γ = test: In vitro IFN-γ ELISPOT assay using PBMCs and immature DCs; type: cell-based, human; details: 100 ng/ml glycolipid, 22-26 hours co-culture with immature DCs
Method: CD14+ cells were isolated from leukopaks, using magnetic beads (Miltenyi biotec, Auburn, Calif.) coupled to an anti-CD14 monoclonal antibody. Immature dendritic cells (DCs) were then generated from the CD14+ cells after a three-day incubation in the presence of 300 U/ml GM-CSF (R&D systems, Minneapolis, Minn.) and 100 U/ml IL-4 (R&D systems, Minneapolis, Minn.). CD14-cells were used as Peripheral Blood Mononuclear Cells (PBMCs) for the following experiments.
96 well nitrocellulose plates (Milititer HA, Millipore) were coated with 10 μg/ml of anti-human interferon γ mAb (Mabtech, Ohio), contained in 75 μl of PBS. After overnight incubation at room temperature, the wells were washed repeatedly and blocked with culture medium for 1 hour at 37° C. Following irradiation with 3000 rads, 5×10^4 immature dendritic cells were co-cultured with 5×10^5 of syngeneic CD14− PBMCs in the presence of 100 ng/ml of various glycolipids (i.e., GCK109 [A-1 trans-conformer], GCK151 [A-1 cis-conformer], GCK127 [A-2], GCK152 [A-7], and control compounds CRONY=α-C-GalCer and KRN=α-GalCer) in the ELISPOT plate for 22-26 hours at 37° C. and 5% CO2. […] After 10 to 15 minutes, the number of spots corresponding to IFN-γ secreting cells was determined using a stereomicroscope. […]

IL-4 = test: In vitro IL-4 ELISPOT assay using PBMCs and immature DCs; type: cell-based, human; details: 100 ng/ml glycolipid, 22-26 hours co-culture with immature DCs

| Structure (SMILES) | frequency of PBMCs secreting IFN-γ (ELISPOT), compared with KRN (IFN-γ) | frequency of PBMCs secreting IL-4 (ELISPOT), compared with KRN (IL-4) |
| --- | --- | --- |
| CCCCCCCCCCCCCCCCCC/C=C\CCCCCCCCC(=O)N[C@@H](/C=C/[C@H]1OC(CO)[C@H](O)[C@H](O)C1O)[C@H](O)[C@H](O)CCCCCCCCCCCCCC (stereo partly shown) [GCK151] | high frequency | high frequency |
| CCCCCCCCCCCCCC[C@@H](O)[C@@H](O)[C@H](/C=C/[C@H]1OC(CO)[C@H](O)[C@H](O)C1O)NC(=O)CCCCCCCc1ccccc1 (stereo partly shown) [A-7] | high frequency | high frequency |
